Results: US20130210794A1, “NANOSTRUCTURED EZETIMIBE COMPOSITIONS, PROCESS FOR THE PREPARATION THEREOF AND PHARMACEUTICAL COMPOSITIONS CONTAINING THEM” (priority 2010, published 2013)

What was measured:
[1] = Solubility by UV-VIS measurement (Example 1); assay type: physicochemical; conditions: room temperature, UV-VIS at 248 nm, filtered by 100 nm syringe filter
Experimental: The solubility of nanostructured Ezetimibe compared to the reference form of the active compound was determined in distilled water and 0.05% SDS solution by UV-VIS measurements (Thermo Genesys 10S spectrophotometer) at 248 nm wavelength and room temperature. The redispersed sample was filtered by 100 nm disposable syringe filter.

[2] = cited from earlier work
[3] = PAMPA permeability measurement (Example 5); assay type: in vitro ADME; conditions: redispersed in distilled water; receiver phosphate buffered saline with 1% sodium lauryl sulphate; UV at 248 nm
Experimental: Reference Ezetimibe and solid nanostructured Ezetimibe was redispersed in distilled water and permeability was measured across and artificial membrane composed of dodecane with 20% soy lecithin. The sample containing the reference compound was a suspension of crystals visible by the naked eye, while the nanostructured sample was an opalescent colloid solution. The receiver compartment was phosphate buffered saline with 1% sodium lauryl sulphate.

[4] = cited from earlier work; remark: listed apart in the source
human plasma proteins = conditions: cited from earlier work

Row | SMILES | solubility in 0.05% SDS solution ([1]; 0.05% SDS solution) | solubility in distilled water ([1]; distilled water) | deviation from dose proportionality ([2]; between 5 and 20 mg) | increase of Cmax with food ([2]; consumption of high-fat meals, ZETIA 10-mg tablets) | effect of concomitant food on extent of absorption ([2]; high-fat or non-fat meals, ZETIA 10-mg tablets) | bioavailability (estimated) ([2]; oral) | PAMPA permeability [3] | stability ([4]; ambient temperature) | solubility in ethanol, methanol and acetone (descriptive) ([4]; ethanol, methanol, acetone) | solubility in water (descriptive) ([4]; water) | mean peak plasma concentration (Cmax) ([2]; in vivo, po, 10 mg) | tmax ([2]; in vivo, po, 10 mg) | bound to human plasma proteins (human plasma proteins)
1 | O=C1[C@H](CC[C@H](O)c2ccc(F)cc2)[C@@H](c2ccc(O)cc2)N1c1ccc(F)cc1 [Ezetimibe, 1-(4-fluorophenyl)-3(R)-[3-(4-fluorophenyl)-3(S)-hydroxypropyl]-4(S)-(4-hydroxyphenyl)-2-azetidinone] | under the detection limit | under the detection limit | no substantial deviation from dose proportionality | 38% | no effect | 35-65% | under the detection limit | stable at ambient temperature | freely to very soluble | practically insoluble | – | – | –
2 | O=C(O)[C@H]1O[C@@H](Oc2ccc([C@@H]3[C@@H](CC[C@H](O)c4ccc(F)cc4)C(=O)N3c3ccc(F)cc3)cc2)[C@H](O)[C@@H](O)[C@@H]1O [Ezetimibe-glucuronide] | – | – | – | – | – | – | – | – | – | – | 45 to 71 ng/mL | 1 to 2 h | > 90%
